Read-outs that look alike come from different tables or passages of the source.
Assays:
Class A ESBL SHV-5 = biological target: T1, Class A ESBL SHV-5 (Klebsiella pneumoniae, UniProt P0A3M1); type: biochemical, E. coli; conditions: nitrocefin 100 μM, PBS pH 7.0, read-out: SHV-5 IC50 Range
T1 construct: made in house; host or cells: E. coli BL21(DE3) for purified enzyme; E. coli cells containing SHV-5 for extracts

[1] = tested on: K. pneumoniae expressing the Class A carbapenemase KPC-2; test: microbe, parasite or virus in culture; conditions: in the presence of fixed 8 μg/mL Ceftazidime
Class C P99 AmpC = biological target: T2, Class C P99 AmpC (Enterobacter cloacae, UniProt P05364); type: biochemical; conditions: purified enzyme; nitrocefin 100 μM, PBS pH 7.0; read-out: P99 AmpC IC50 Range
T2 construct: made in house; host or cells: E. coli BL21(DE3)
Outline: (§1)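 Native untagged enzymes were expressed in E. coli BL21(DE3) and purified by cation exchange and gel filtration. Compound series (100–0.005 μM in PBS pH 7.0, before addition of an equal enzyme volume) were preincubated with enzyme 10 min at 37°C. Nitrocefin (100 μM final) hydrolysis was read kinetically at 486 nm for 10 min, and IC50 was taken as 50% reduction of initial rate versus no-inhibitor wells.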

[2] = tested on: E. coli expressing the Class A ESBL SHV-5; test: microbe, parasite or virus in culture; type: cell-based; conditions: in the presence of fixed 8 μg/mL Ceftazidime
[3] = tested on: E. cloacae expressing the Class C P99+ AmpC; test: microbe, parasite or virus in culture; type: cell-based; conditions: in the presence of fixed 8 μg/mL Ceftazidime
Outline: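 Broth microdilution potentiation assay in cation-adjusted Mueller Hinton broth: compound was titrated 8 to 0.015 μg/mL final against a fixed 8 μg/ml cephalosporin. Strains were pre-grown 3-5 h with 50 μg/mL ampicillin and inoculated per CLSI. MIC was read visually after 16-20 h at 37° C.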

[4] = tested on: K. pneumoniae expressing the Class A ESBL CTX-M-15; test: microbe, parasite or virus in culture; type: cell-based; conditions: in the presence of fixed 8 μg/mL Ceftazidime
Class A ESBL CTXM-15 = biological target: T3, Class A ESBL CTXM-15 (Escherichia coli, UniProt Q9EXV5); test: β-lactamase enzyme inhibition (nitrocefin hydrolysis), CTXM-15; type: biochemical; conditions: purified enzyme; nitrocefin 100 μM, PBS pH 7.0; read-out: CTXM-15 IC50 Range
T3 construct: made in house; host or cells: E. coli BL21(DE3)
Outline: as §1

[5] = biological target: T4, Class A carbapenemase KPC-2 (Klebsiella pneumoniae, UniProt Q9F663); test: β-lactamase enzyme inhibition (nitrocefin hydrolysis), KPC-2; type: biochemical; conditions: purified enzyme; nitrocefin 100 μM, PBS pH 7.0; read-out: KPC-2 IC50 Range
T4 construct: made in house; host or cells: E. coli BL21(DE3)
Outline: as §1

[6] = cellular extracts of E. coli containing SHV-5 (Examples 2-30)
[7] = purified beta-lactamase enzyme (Examples 1 and 31-64)

T4 sequence (Q9F663 25-293 limits assumed): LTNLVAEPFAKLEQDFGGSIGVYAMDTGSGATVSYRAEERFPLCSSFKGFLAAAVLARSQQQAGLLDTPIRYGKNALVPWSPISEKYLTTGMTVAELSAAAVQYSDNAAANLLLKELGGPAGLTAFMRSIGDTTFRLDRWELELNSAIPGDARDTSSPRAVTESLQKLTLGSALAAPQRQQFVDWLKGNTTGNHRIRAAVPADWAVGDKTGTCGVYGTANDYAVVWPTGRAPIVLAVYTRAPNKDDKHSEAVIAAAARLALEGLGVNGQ
T1 sequence (P0A3M1 22-286): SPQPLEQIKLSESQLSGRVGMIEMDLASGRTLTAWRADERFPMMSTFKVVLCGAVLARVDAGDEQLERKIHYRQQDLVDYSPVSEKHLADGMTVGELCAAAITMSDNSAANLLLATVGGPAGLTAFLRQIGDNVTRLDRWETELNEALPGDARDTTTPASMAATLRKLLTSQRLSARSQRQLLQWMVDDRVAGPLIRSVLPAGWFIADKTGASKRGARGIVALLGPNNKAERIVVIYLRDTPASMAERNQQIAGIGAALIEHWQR
T2 sequence (P05364 21-381): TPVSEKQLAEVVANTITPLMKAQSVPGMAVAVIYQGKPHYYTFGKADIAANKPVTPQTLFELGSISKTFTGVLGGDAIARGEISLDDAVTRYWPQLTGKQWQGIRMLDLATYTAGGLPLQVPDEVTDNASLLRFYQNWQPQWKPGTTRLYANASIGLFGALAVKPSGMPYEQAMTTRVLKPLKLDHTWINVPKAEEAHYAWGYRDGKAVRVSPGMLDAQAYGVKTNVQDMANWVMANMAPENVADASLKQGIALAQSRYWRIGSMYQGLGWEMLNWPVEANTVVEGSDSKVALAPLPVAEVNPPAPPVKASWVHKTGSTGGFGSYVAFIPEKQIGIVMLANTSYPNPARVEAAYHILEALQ
T3 sequence (Q9EXV5 entry or part of it): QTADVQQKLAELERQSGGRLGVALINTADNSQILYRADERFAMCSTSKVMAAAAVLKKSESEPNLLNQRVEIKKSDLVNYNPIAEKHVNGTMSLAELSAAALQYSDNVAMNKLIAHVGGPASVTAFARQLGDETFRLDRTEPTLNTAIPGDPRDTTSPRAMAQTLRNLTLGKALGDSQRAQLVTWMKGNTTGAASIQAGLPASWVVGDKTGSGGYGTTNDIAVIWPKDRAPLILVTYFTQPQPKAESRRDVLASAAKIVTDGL

Row | SMILES | IC50 (Class A ESBL SHV-5; [6]) | MIC of example compound, K. pneumoniae KPC-2 + 8 μg/mL CAZ [1] | IC50 (Class C P99 AmpC) | MIC of example compound, E. coli SHV-5 + 8 μg/mL CAZ [2] | MIC of example compound, E. cloacae P99 AmpC + 8 μg/mL CAZ [3] | MIC of example compound, K. pneumoniae CTX-M-15 + 8 μg/mL CAZ [4] | IC50 (Class A ESBL CTXM-15) | IC50 [5] | IC50 (Class A ESBL SHV-5; [7])
1 | O=C(Cc1ccccc1)N[C@@H](Cc1cccc(C(=O)O)c1O)B(O)O [Example 10, (1R)-1-(2-phenylacetylamino)-2-(2-hydroxy-3-carboxyphenyl)ethyl-1-boronic acid] | < 10 nM | C (C represents an MIC of <1 μg/mL) | < 10 nM | C (C represents an MIC of <1 μg/mL) | C (C represents an MIC of <1 μg/mL) | C (C represents an MIC of <1 μg/mL) | < 10 nM | – | –
2 | COc1ccc(OC)c(CC(=O)N[C@@H](Cc2cccc(C(=O)O)c2O)B(O)O)c1 [Example 17, (1R)-1-(2-(2,5-dimethoxyphenyl)-acetylamino)-2-(2-hydroxy-3-carboxyphenyl)ethyl-1-boronic acid] | < 10 nM | – | < 10 nM | A (A represents an MIC >8 μg/mL) | C (C represents an MIC of <1 μg/mL) | C (C represents an MIC of <1 μg/mL) | < 10 nM | < 10 nM | –
3 | CCCCC(=O)N[C@@H](Cc1cccc(C(=O)O)c1O)B(O)O [Example 23, (1R)-1-(pentanoylamino)-2-(2-hydroxy-3-carboxyphenyl)ethyl-1-boronic acid] | 10 to 100 nM | C (C represents an MIC of <1 μg/mL) | 10 to 100 nM | C (C represents an MIC of <1 μg/mL) | C (C represents an MIC of <1 μg/mL) | C (C represents an MIC of <1 μg/mL) | < 10 nM | < 10 nM | –
4 | Nc1nc(CC(=O)N[C@@H](Cc2cccc(C(=O)O)c2O)B(O)O)cs1.O=CO [Example 39, (1R)-1-(2-Amino-thiazol-4-yl)-acetylamino-1-(3-carboxy-2-hydroxy)benzyl-methylboronic acid formate salt] | – | C (C represents an MIC of <1 μg/mL) | < 10 nM | C (C represents an MIC of <1 μg/mL) | C (C represents an MIC of <1 μg/mL) | C (C represents an MIC of <1 μg/mL) | < 10 nM | 100 to 1000 nM | < 10 nM
5 | NCC(=O)N[C@@H](Cc1cccc(C(=O)O)c1O)B(O)O.O=CO [Example 41, (1R)-1-(2-aminoacetylamino)-2-(2-hydroxy-3-carboxyphenyl)ethyl-1-boronic acid formate salt] | – | C (C represents an MIC of <1 μg/mL) | > 1000 nM | A (A represents an MIC >8 μg/mL) | A (A represents an MIC >8 μg/mL) | A (A represents an MIC >8 μg/mL) | 100 to 1000 nM | 10 to 100 nM | > 1000 nM
6 | Cl.O=C(Cc1ccncc1)N[C@@H](Cc1cccc(C(=O)O)c1O)B(O)O [Example 52, (1R)-1-(4-Pyridylacetylamino)-2-(2-hydroxy-3-carboxyphenyl)ethyl-1-boronic acid hydrochloride] | – | C (C represents an MIC of <1 μg/mL) | < 10 nM | C (C represents an MIC of <1 μg/mL) | C (C represents an MIC of <1 μg/mL) | C (C represents an MIC of <1 μg/mL) | < 10 nM | < 10 nM | < 10 nM
7 | O=C(N[C@@H](Cc1cccc(C(=O)O)c1O)B(O)O)c1cnc2ccccc2n1 [Example 54, (1R)-1-(Quinoxaline-2-carbonyl-amino)-2-(2-hydroxy-3-carboxyphenyl)ethyl-1-boronic acid] | – | – | < 10 nM | A (A represents an MIC >8 μg/mL) | A (A represents an MIC >8 μg/mL) | A (A represents an MIC >8 μg/mL) | < 10 nM | < 10 nM | 10 to 100 nM
8 | O=C(N[C@@H](Cc1cccc(C(=O)O)c1O)B(O)O)c1cn2ccsc2n1 [Example 56, (1R)-1-(Imidazo[2,1-b]thiazole-6-carbonyl-amino)-2-(2-hydroxy-3-carboxyphenyl)ethyl-1-boronic acid] | – | – | 100 to 1000 nM | A (A represents an MIC >8 μg/mL) | A (A represents an MIC >8 μg/mL) | A (A represents an MIC >8 μg/mL) | 10 to 100 nM | 100 to 1000 nM | 10 to 100 nM
